Target: T1, Corticotropin-releasing factor-binding protein (Homo sapiens, UniProt P24387)
T1 sequence (P24387 whole entry): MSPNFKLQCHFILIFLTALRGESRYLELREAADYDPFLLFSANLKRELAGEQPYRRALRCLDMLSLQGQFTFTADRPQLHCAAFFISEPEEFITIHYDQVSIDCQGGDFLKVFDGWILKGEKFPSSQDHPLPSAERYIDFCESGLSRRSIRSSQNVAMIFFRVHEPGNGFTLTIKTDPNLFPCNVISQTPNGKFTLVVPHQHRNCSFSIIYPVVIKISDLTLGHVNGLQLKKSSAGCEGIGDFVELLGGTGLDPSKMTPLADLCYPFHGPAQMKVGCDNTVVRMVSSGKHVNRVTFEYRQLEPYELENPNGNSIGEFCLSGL
Test: activators of CRF receptor 2 with binding protein – uHTS hits, confirmation (AID 602473)

Row | SMILES | EC50 [µM]
1 | COc1ccc(C2=c3cc(F)ccc3=NC(c3ccco3)=NN2)cc1 [7-fluoranyl-2-(furan-2-yl)-5-(4-methoxyphenyl)-4H-1,3,4-benzotriazepine] | > 53
2 | N#CC(C(=O)c1cccc(F)c1)c1nc2ccccc2s1 (configuration not stated) [(2Z)-2-(3H-1,3-benzothiazol-2-ylidene)-3-(3-fluorophenyl)-3-keto-propionitrile] | > 53
3 | N#CC(C(=O)Cc1cccc2ccccc12)c1nc2ccccc2s1 (configuration not stated) [(2Z)-2-(3H-1,3-benzothiazol-2-ylidene)-4-naphthalen-1-yl-3-oxobutanenitrile] | 3.14
4 | N#CC(C1=NCCC1)c1nc2ccccc2c(=O)[nH]1 (configuration not stated) [(2Z)-2-(4-oxo-1H-quinazolin-2-yl)-2-(2-pyrrolidinylidene)acetonitrile] | > 53
5 | O=NC1C(=O)N(Cc2c(Cl)cccc2Cl)c2ccccc21 (configuration not stated) [(3Z)-1-[(2,6-dichlorophenyl)methyl]-3-hydroxyimino-2-indolone] | 4.67
6 | Cc1ccc2oc(=O)c(CC(=O)c3sc(C)nc3C)nc2c1 [(3Z)-3-[2-(2,4-dimethyl-1,3-thiazol-5-yl)-2-oxidanylidene-ethylidene]-6-methyl-4H-1,4-benzoxazin-2-one] | 7.67
7 | Cc1ccc2oc(=O)c(CC(=O)c3ccco3)nc2c1 [(3Z)-3-[2-(2-furanyl)-2-oxoethylidene]-6-methyl-4H-1,4-benzoxazin-2-one] | 4.74
8 | COc1ccc(C(=O)Cc2nc3ccccc3n(-c3ccccc3)c2=O)cc1 [(3Z)-3-[2-(4-methoxyphenyl)-2-oxidanylidene-ethylidene]-1-phenyl-4H-quinoxalin-2-one] | 7.85
9 | Cc1ccc(C(=O)Cc2nc3ccccc3oc2=O)cc1 [(3Z)-3-[2-(4-methylphenyl)-2-oxidanylidene-ethylidene]-4H-1,4-benzoxazin-2-one] | 11.4
10 | Cc1ccc2oc(=O)c(CC(=O)c3cccs3)nc2c1 [(3Z)-3-[2-keto-2-(2-thienyl)ethylidene]-6-methyl-4H-1,4-benzoxazin-2-one] | 4.87
11 | O=C(Cc1nc2ccccc2n(-c2ccccc2)c1=O)c1ccccc1 [(3Z)-3-phenacylidene-1-phenyl-4H-quinoxalin-2-one] | 11.6
12 | Cc1ccc2oc(=O)c(CC(=O)c3ccccc3)nc2c1 [(3Z)-6-methyl-3-(2-oxo-2-phenylethylidene)-3,4-dihydro-2H-1,4-benzoxazin-2-one] | 12.1
13 | CCOc1ccc(C2C(C(=O)c3ccc4c(c3)OCCO4)C(=O)C(=O)N2CCCN2CCOCC2)cc1 (configuration not stated) [(4E)-4-[2,3-dihydro-1,4-benzodioxin-6-yl(oxidanyl)methylidene]-5-(4-ethoxyphenyl)-1-(3-morpholin-4-ylpropyl)pyrrolidine-2,3-dione] | > 53
14 | CCCCN1C(=O)NC(=O)C(C(=O)C=Cc2c[nH]c3ccccc23)C1=O (configuration not stated) [(5Z)-1-butyl-5-[(E)-3-(1H-indol-3-yl)-1-oxidanyl-prop-2-enylidene]-1,3-diazinane-2,4,6-trione] | 6.02
15 | O=CC(C=Nc1ccccn1)c1nc2cc(Cl)ccc2o1 (configuration not stated) [(Z)-2-(5-chloranyl-1,3-benzoxazol-2-yl)-3-(pyridin-2-ylamino)prop-2-enal] | > 53
16 | N#CCSc1nnc(CNc2ccc(F)cc2)o1 [({5-[(4-fluoroanilino)methyl]-1,3,4-oxadiazol-2-yl}sulfanyl)acetonitrile] | > 53
17 | COc1ccc(C2=Nc3nnnn3C(c3cccc(OC)c3)C2)cc1 (configuration not stated) [MLS000036434] | > 53
18 | CCOC(=O)C1=C(C)N=C(SCC(=O)OC)C(C#N)C1c1ccc(C(=O)OC)cc1 (configuration not stated) [MLS000039154] | > 53
19 | C=CCOC(=O)C1C(C)=NC2(O)c3ccccc3C(=O)C12O (configuration not stated) [MLS000068305] | > 53
20 | Cc1c(Cl)ccc2c1NC(=O)C21NC(CCC(N)=O)c2c1c(O)n(-c1ccc(Cl)cc1)c2O (configuration not stated) [MLS000083515] | > 53
21 | CCCC(NCC(=O)O)=C1C(=O)CC(C)(C)C(C(=O)OC)C1=O (configuration not stated) [MLS000108316] | > 53

Row | SMILES | EC50 [µM]
22 | CSc1nnc(C)c(CC=Nc2ccc(C)cc2)n1 [MLS000326071] | 14.9
23 | N#CC(C(=O)COC(=O)COc1cccc(Br)c1)c1nc2ccccc2[nH]1 (configuration not stated) [MLS000391269] | > 53
24 | CC(=O)C1C(=O)C(=O)N(c2nccs2)C1c1ccccc1 (configuration not stated) [MLS000533923] | > 53
25 | COC(=O)C1=C(C)N=C(C)C(C(=O)OC)C1/C=C/c1ccccc1 (configuration not stated) [MLS000571366] | > 53
26 | COc1ccc(/C=N/OCC(=O)NNC2=c3cc(Br)ccc3=NC2=O)cc1 [MLS000587830] | > 53
27 | Nc1[nH]c(=O)sc1C=C1C=CC(=O)C=C1 [MLS000697264] | > 53
28 | CC1(C)CC(=O)C(=CNc2ccc(C(=O)c3ccccc3)cc2NC=C2C(=O)CC(C)(C)CC2=O)C(=O)C1 [MLS000724193] | > 53
29 | Cn1c(SCC(=O)N/N=C/C2C=C([N+](=O)[O-])C=CC2=O)nnc1-c1ccccc1 (configuration not stated) [MLS000777077] | > 53
30 | Cc1cc(C)n(CCC(=O)NNC2=c3cc(Br)ccc3=NC2=O)n1 [MLS000777238] | > 53
31 | CC(=O)C1C(C)=NC(=S)NC1c1cc([N+](=O)[O-])ccc1O (configuration not stated) [MLS000777581] | > 53
32 | O=C(Nn1c(O)csc1=S)c1cccnc1 [MLS000780148] | > 53
33 | COc1ccc(C(C)N=Nc2ccc([N+](=O)[O-])cc2S(=O)(=O)Nc2ccccc2C(=O)O)c(OC)c1 (configuration not stated) [MLS002249507] | 38.6
34 | Cn1c(O)c(N=Nc2ccc([N+](=O)[O-])cc2)sc1=S [MLS002608645] | 1.69
35 | CN(C)c1ccc(C=Nn2c(O)csc2=S)c(Cl)c1 [MLS002919800] | > 53
36 | Oc1csc(=S)n1N=Cc1c(F)cccc1Cl [MLS002919802] | > 53
37 | Cc1cc2c(cc1Br)=NC(=O)C=2NNC(=O)C1CC1c1ccccc1 (configuration not stated) [N'-(6-bromo-5-methyl-2-oxo-3-indolyl)-2-phenyl-1-cyclopropanecarbohydrazide] | > 53
38 | COc1ccccc1NS(=O)(=O)c1ccc(N=NCc2c(C)nn(-c3ccccc3)c2N2CCCC2)c([N+](=O)[O-])c1 [N-(2-methoxyphenyl)-4-[(2E)-2-[(3-methyl-1-phenyl-5-pyrrolidin-1-yl-pyrazol-4-yl)methylidene]hydrazinyl]-3-nitro-benzenesulfonamide] | > 53
39 | Cc1noc(NS(=O)(=O)c2ccc(N=CCC(=O)c3cccc4ccccc34)cc2)c1C [N-(3,4-dimethyl-1,2-oxazol-5-yl)-4-[[(Z)-3-naphthalen-1-yl-3-oxidanylidene-prop-1-enyl]amino]benzenesulfonamide] | > 53
40 | Cc1ccc(C)c2sc(NC(=O)c3ccc(-n4c(O)ccc4O)cc3)nc12 [N-(4,7-dimethyl-1,3-benzothiazol-2-yl)-4-(2,5-dioxopyrrolidin-1-yl)benzamide] | > 53
41 | CN1c2ccccc2C(=O)C(C(=S)Nc2ccc(Cl)cc2)S1(=O)=O (configuration not stated) [N-(4-chlorophenyl)-4-hydroxy-1-methyl-2,2-dioxo-1,2-dihydro-2lambda~6~,1-benzothiazine-3-carbothioamide] | > 53
42 | CCCCN(C(=O)c1ccc2c(c1)S(=O)(=O)NC1=CCCCCN12)c1c(N)n(CCCC)c(=O)[nH]c1=O [N-(6-amino-1-butyl-2,4-dioxo-5-pyrimidinyl)-N-butyl-5,5-dioxo-8,9,10,11-tetrahydro-7H-azepino[2,1-c][1,2,4]benzothiadiazine-3-carboxamide] | > 53

Row | SMILES | EC50 [µM]
43 | CCC(C)(C)NC(=O)C(c1ccccc1F)N(Cc1ccco1)C(=O)c1csnn1 (configuration not stated) [N-[1-(2-fluorophenyl)-2-(2-methylbutan-2-ylamino)-2-oxoethyl]-N-(2-furanylmethyl)-4-thiadiazolecarboxamide] | 15.6
44 | O=NCc1ccc(Oc2ccc(F)cc2)c([N+](=O)[O-])c1 [N-[[4-(4-fluorophenoxy)-3-nitrophenyl]methylidene]hydroxylamine] | > 53
45 | COC(=O)C1=Nc2nnnn2C(c2ccc(O)c(OC)c2)C1C(=O)c1ccccc1 (configuration not stated) [SMR000020111] | > 53
46 | COc1ccc(C2=Nc3nnnn3C(c3ccc(C)cc3)C2)cc1 (configuration not stated) [SMR000035317] | > 53
47 | CCc1ccccc1-n1c(O)c2c(c1O)CC(C)=C(C)C2 [SMR000104383] | > 53
48 | CC(=CN=Nc1nc(C)cc(C)n1)Cc1ccc(C(C)C)cc1 [SMR000146220] | > 53
49 | Cc1[nH]c2ccccc2c1/C=C1\N=C(c2ccc(C(F)(F)F)cc2)OC1=O [SMR000152363] | 10.2
50 | Cc1ccc(-n2[nH]c(C)c(CN=Nc3ccc([N+](=O)[O-])cc3[N+](=O)[O-])c2=O)cc1 [SMR000171521] | > 53
51 | Cc1ccc(S(=O)(=O)N(CC(=O)NNC2=c3ccccc3=NC2=O)c2ccc(C)c(C)c2)cc1 [SMR000207608] | > 53
52 | Cc1ccc(CSC(=Nc2ccc(F)cc2)C(C#N)C#N)cc1 [SMR000217751] | > 53
53 | Cc1nn(-c2ccccc2)c(N2CCCC2)c1CN=Nc1ccc(S(N)(=O)=O)cc1[N+](=O)[O-] [SMR000243538] | > 53
54 | COc1ccc(C(=O)C2C(=O)C(=O)N(CCN(C)C)C2c2cccnc2)cc1C (configuration not stated) [SMR000287983] | > 53
55 | COc1ccc(C2c3c(n(C)c(=O)n(C)c3=O)N=C3CC(C)(C)CC(=O)C32)cc1OC (configuration not stated) [SMR000291470] | > 53
56 | O=C1C=Cc2cc(=C3C=CCC=N3)c(=O)oc2=C1CN1CCN(CCO)CC1 [SMR000298878] | 6.05
57 | O=c1nncc(N=NC=CCc2ccccc2)[nH]1 [SMR000413415] | > 53
58 | Nc1ccccc1Sc1cc(O)n(-c2ccc3c(c2)OCO3)c1O [SMR000459840] | > 53
59 | CC1=NC(=O)NC(c2cccc3ccccc23)C1C(=O)OC(C)(C)C (configuration not stated) [SMR000543036] | > 53
60 | COc1ccc(Cn2cc(O)n(-c3cccc(Cl)c3)c2=S)cc1OC [SMR000564410] | > 53
61 | Cc1cc(C)cc(NC(=O)c2ccc(-n3c(O)c4c(c3O)CCCC4)cc2)c1 [SMR000664971] | > 53
62 | COc1cccc(C2C(C(=O)c3ccc(C)o3)C(=O)C(=O)N2CCN2CCOCC2)c1OC (configuration not stated) [SMR000665042] | > 53

Source: BindingDB's records for doi:10.7270/Q2VX0F3D (Burnham Center For Chemical Genomics, 2012)
